Like-named read-outs stand apart in the source and are kept apart here.
What was measured:
TNF-α induced shock = TNF-α induced shock test in mice; assay type: in vivo, C57BL/6 mice; conditions: 10, 20 and 30 mg/kg, given 15 min before TNF-α; body temperature 0-6 h
Protocol: C57BL/6 mice were specially sterilized, and the animals are randomly grouped according to their body weight. 0.15 mg/mL TNF-α was prepared. Each mouse was injected with 200 μL TNF-alpha (30 μg per mouse) through the tail vein. 15 min before TNF-α induction, the drug was administered according to the body weight. At 0 h, 1 h, 2 h, 4 h, and 6 h, the body temperature of the mouse was detected by a small animal thermometer and recorded, and the state of the animal was observed during the test. After 6 h, the mice were euthanized with CO2. The experimental data was plotted by Graph Pad Prism 7, and expressed as mean±standard error (Mean±SEM). The area under the clinical scoring curve was analyzed by one-way ANOVA. p<0.05 is considered to have significant differences as compared to the control group.

Jurkat (FADD−/−) cells = test: Inhibition of TNF-induced programmed Jurkat (FADD−/−) cell necrosis (Cell Titer-Glo); assay type: cell-based, human; conditions: 20 h, read-out: Cellular IC50 (M) Jurkat (FADD−/−)
Outline: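 FADD-knockout Jurkat cells (5×10^5/mL) preincubated with compound, then given TNF (final 10 ng/mL) for 20 h at 37 °C. ATP measured by Cell Titer-Glo luminescence, normalised to untreated DMSO wells as 100% viability; IC50 from duplicate wells.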

[1] = Plasma concentration in mice after a single oral administration; assay type: in vivo; conditions: single oral dose 10 mg/kg, 0.25-24 h
Protocol: An oral solution containing Compound RIP1-034 of the present application was freshly prepared with an aqueous solution containing 0.5% MC/0.25% Tween 80 on the day of administration. All animals were fasted overnight before administration, and were allowed to have free food intake 4 hours after administration. Each group included three mice, and each mouse was orally administered a single dose of 10 mg/kg on the day of the experiment. About 30 μL of whole blood was collected from the dorsal vein of the foot at 0.25, 0.5, 1, 2, 4, 6, 8, and 24 hours after administration, transferred to an anticoagulation tube containing heparin sodium and mixed thoroughly by inverting for several times. The collected blood sample was centrifuged at 4° C. and 4000 g for 5 min to collect plasma, and the plasma sample was dispensed into clean polyethylene microcentrifuge tubes, and then stored in a freezer at −75±15° C. until analysis. The actual administration volume was calculated based on the animal's body weight. All samples were analyzed by LC-MS/MS, and the concentration of the drug to be tested in the samples was determined by the standard curve method. The average plasma concentration in a group of three mice at each measurement time point after a single oral administration is shown in FIG. 3.

human RIP1 = target: T1, human RIP1 (Homo sapiens, UniProt Q13546); test: Inhibition of ADP-Glo RIP1 kinase activity; assay type: biochemical
T1 construct: made in house; host or cells: Sf-9 insect cells
T1 sequence (Q13546 1-671): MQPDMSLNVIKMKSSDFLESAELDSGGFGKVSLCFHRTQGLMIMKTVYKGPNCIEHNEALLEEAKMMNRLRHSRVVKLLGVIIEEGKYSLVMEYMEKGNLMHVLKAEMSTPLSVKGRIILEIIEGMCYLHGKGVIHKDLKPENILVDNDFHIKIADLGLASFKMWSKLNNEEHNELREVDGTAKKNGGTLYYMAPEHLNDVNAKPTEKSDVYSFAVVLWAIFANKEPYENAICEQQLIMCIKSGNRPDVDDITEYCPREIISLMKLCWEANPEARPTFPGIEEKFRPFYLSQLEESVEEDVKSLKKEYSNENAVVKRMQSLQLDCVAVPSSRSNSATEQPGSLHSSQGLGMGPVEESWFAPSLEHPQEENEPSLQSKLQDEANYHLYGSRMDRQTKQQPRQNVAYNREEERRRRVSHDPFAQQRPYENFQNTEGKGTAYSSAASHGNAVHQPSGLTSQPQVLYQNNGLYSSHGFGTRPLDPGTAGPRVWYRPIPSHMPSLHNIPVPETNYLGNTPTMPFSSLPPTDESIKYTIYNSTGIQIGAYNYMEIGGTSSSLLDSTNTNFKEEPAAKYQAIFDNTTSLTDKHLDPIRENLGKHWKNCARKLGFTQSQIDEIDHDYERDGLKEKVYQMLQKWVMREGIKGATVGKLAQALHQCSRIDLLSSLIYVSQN
Protocol: The human RIP1 gene was transduced into Sf-9 insect cells, and the RIP1 protein was purified by Ni+ affinity chromatography and then by S-200 molecular sieve to remove the protein multimers. The obtained RIP1 protein was stored at −70° C., and the activity of the RIP1 protein in catalyzing autophosphorylation was detected by the ADP-Glo™ Kinase Activity Assay Kit (Promega) and the inhibitory activity of the drug against the RIP1 kinase was determined.
100 nL of the compound was transferred to a 384-well assay plate. Two replicate wells were set for each concentration of each drug.
The RIP1 enzyme solution and ATP solution were formulated in an assay buffer (containing 50 mM HEPES pH 7.5, 30 mM MgCl2, 50 mM NaCl, 1 mM DTT, 0.02% CHAPS, and 0.5 mg/ml BSA). Then, 5 μL of the RIP1 enzyme solution (final concentration 50 nM) was added to the assay plate and incubated at room temperature for 1 h. 5 μL of the ATP solution (final concentration 10 μM) was added to the assay plate, and incubate at room temperature for 4 h. Then 5 μL of ADP-Glo reagent was added to the assay plate, and incubated at room temperature for 60 min. 5 μL of a kinase assay solution was added to the assay plate, and incubated at room temperature for 30 min. After readout on Envision, the inhibition rate in each well was calculated from the full-activity well and the background well, and the Ki of the compound was calculated by GraphPad Prism 7 software (using the Morrision equation to fit the curve and calculate the Ki).

[2] = Homo sapiens, Jurkat, TNF 10 ng/mL, intracellular ATP level

CN1C(=O)[C@@H](NC(=O)c2nnc(Cc3ccccc3)[nH]2)COc2cc3[nH]nc(Cl)c3cc21 [RIP1-034]
decrease in body temperature due to systemic inflammatory response caused by TNF-α (TNF-α induced shock): effectively inhibits the decrease in body temperature | IC50 (Jurkat (FADD−/−) cells; [2]): 8.9e-10 M | plasma concentration after oral administration [1]: can reach a desirable plasma concentration | Ki (human RIP1): 6.35 nM

CN1C(=O)[C@@H](NC(=O)c2ncn(Cc3ccccc3)n2)COc2cc3occc3cc21 [RIP1-119]
IC50 (Jurkat (FADD−/−) cells; [2]): 5.81e-10 M | Ki (human RIP1): 19.1 nM

CN1C(=O)[C@@H](NC(=O)c2noc(Cc3ccccc3)n2)COc2cc3occc3cc21 [RIP1-123]
IC50 (Jurkat (FADD−/−) cells; [2]): 1.33e-09 M | Ki (human RIP1): 23.2 nM

CN1C(=O)[C@@H](NC(=O)c2cn(Cc3ccccc3)cn2)COc2ccc3ncccc3c21 [RIP1-099]
IC50 (Jurkat (FADD−/−) cells; [2]): 6.92e-09 M | Ki (human RIP1): 37.7 nM

CN1C(=O)[C@@H](NC(=O)c2nnc(Cc3ccccc3)[nH]2)COc2cc3occc3cc21 [RIP1-127]
IC50 (Jurkat (FADD−/−) cells; [2]): 3.28e-09 M | Ki (human RIP1): 16.2 nM

CN1C(=O)[C@@H](NC(=O)c2nnc(Cc3ccccc3)[nH]2)COc2ccc3ncccc3c21 [RIP1-097]
IC50 (Jurkat (FADD−/−) cells; [2]): 1.2e-09 M | IC50 (Jurkat (FADD−/−) cells; TNF 10 ng/mL, intracellular ATP level): 2.28e-09 M | Ki (human RIP1): 23.2 nM

Cc1ccc(Cc2cc(C(=O)N[C@H]3COc4cc5nccnc5cc4N(C)C3=O)nn2C)cc1 [RIP1-133]
IC50 (Jurkat (FADD−/−) cells; [2]): 5.3e-08 M | Ki (human RIP1): 23.1 nM

CN1C(=O)[C@@H](NC(=O)c2cn(Cc3ccccc3)cn2)COc2cc3[nH]nc(Cl)c3cc21 [RIP1-031]
IC50 (Jurkat (FADD−/−) cells; [2]): 2.9e-10 M | Ki (human RIP1): 0.66 nM

CN1C(=O)[C@@H](NC(=O)c2cn(Cc3ccccc3)nn2)COc2cc3[nH]nc(Cl)c3cc21 [RIP1-035]
IC50 (Jurkat (FADD−/−) cells; [2]): 1.94e-09 M | Ki (human RIP1): 7.8 nM

CN1C(=O)[C@@H](NC(=O)c2nnn(Cc3ccccc3)n2)COc2cc3nccnc3cc21 [RIP1-131]
IC50 (Jurkat (FADD−/−) cells; [2]): 1.29e-09 M | Ki (human RIP1): 28.6 nM

COc1ncnc2cc3c(cc12)N(C)C(=O)[C@@H](NC(=O)c1n[nH]c(Cc2ccccc2)n1)CO3 [RIP1-146]
IC50 (Jurkat (FADD−/−) cells; [2]): 1.85e-09 M | Ki (human RIP1): 13.2 nM

CN1C(=O)[C@@H](NC(=O)c2cc(Cc3ccccc3)on2)COc2cc3[nH]nc(Cl)c3cc21 [RIP1-033]
IC50 (Jurkat (FADD−/−) cells; [2]): 6.8e-10 M | Ki (human RIP1): 10.8 nM

CN1C(=O)[C@@H](NC(=O)c2cc(Cc3ccccc3)on2)COc2ccc3cnccc3c21 [RIP1-111]
IC50 (Jurkat (FADD−/−) cells; [2]): 1.16e-09 M | Ki (human RIP1): 18.5 nM

CN1C(=O)[C@@H](NC(=O)c2ncn(Cc3ccccc3)n2)COc2cc3[nH]nc(Cl)c3cc21 [RIP1-032]
IC50 (Jurkat (FADD−/−) cells; Homo sapiens, Jurkat): 2.4e-10 M | Ki (human RIP1): 20.3 nM

Cc1nc2cc3c(cc2[nH]1)OC[C@@H](NC(=O)c1cncn1Cc1ccccc1)C(=O)N3C (stereo in doubt) [RIP1-069]
IC50 (Jurkat (FADD−/−) cells; [2]): 4.52e-09 M | Ki (human RIP1): 31.3 nM

CN1C(=O)[C@@H](NC(=O)c2noc(Cc3ccccc3)n2)COc2cc3nccnc3cc21 [RIP1-132]
IC50 (Jurkat (FADD−/−) cells; [2]): 4.57e-09 M | Ki (human RIP1): 19.3 nM

CN1C(=O)[C@@H](NC(=O)c2nnc(Cc3ccccc3)[nH]2)COc2cc3nccnc3cc21 [RIP1-135]
IC50 (Jurkat (FADD−/−) cells; [2]): 4.25e-09 M | Ki (human RIP1): 21.5 nM

CN1C(=O)[C@@H](NC(=O)c2cc(Cc3ccccc3)on2)COc2cc3occc3cc21 [RIP1-126]
IC50 (Jurkat (FADD−/−) cells; [2]): 2.61e-09 M | Ki (human RIP1): 25.6 nM

COc1ncnc2cc3c(cc12)N(C)C(=O)[C@@H](NC(=O)c1ncn(Cc2ccccc2)n1)CO3 [RIP1-145]
IC50 (Jurkat (FADD−/−) cells; [2]): 4.61e-10 M | Ki (human RIP1): 10.5 nM

CN1C(=O)[C@@H](NC(=O)c2nnn(Cc3ccccc3)n2)COc2cc3occc3cc21 [RIP1-122]
IC50 (Jurkat (FADD−/−) cells; [2]): 2.26e-10 M | Ki (human RIP1): 15.6 nM

CN1C(=O)[C@@H](NC(=O)c2cn(Cc3ccccc3)cn2)COc2cc3occc3cc21 [RIP1-120]
IC50 (Jurkat (FADD−/−) cells; [2]): 2.56e-09 M | Ki (human RIP1): 20.7 nM

CN1C(=O)[C@@H](NC(=O)c2noc(Cc3ccccc3)n2)COc2cc3[nH]nnc3cc21 [RIP1-140]
IC50 (Jurkat (FADD−/−) cells; [2]): 1.37e-09 M | Ki (human RIP1): 50.6 nM

CN1C(=O)[C@@H](NC(=O)c2cn(Cc3ccccc3)nn2)COc2ccc3ncccc3c21 [RIP1-100]
IC50 (Jurkat (FADD−/−) cells; [2]): 3.27e-08 M | Ki (human RIP1): 20.4 nM
